{"source": "PubChem BioAssay (NCI)", "assay_in_all_cases": "DTP human tumour cell line panel, 48 h", "key": {"786-0 renal": {"test_system": "786-0 renal"}, "A498 renal": {"test_system": "A498 renal"}, "A549 NSCLC": {"test_system": "A549 NSCLC"}, "ACHN renal": {"test_system": "ACHN renal"}, "BT-549 breast": {"test_system": "BT-549 breast"}, "CAKI-1 renal": {"test_system": "CAKI-1 renal"}, "CCRF-CEM leukemia": {"test_system": "CCRF-CEM leukemia"}, "COLO 205 colon": {"test_system": "COLO 205 colon"}, "DU-145 prostate": {"test_system": "DU-145 prostate"}, "EKVX NSCLC": {"test_system": "EKVX NSCLC"}, "HCC-2998 colon": {"test_system": "HCC-2998 colon"}, "HCT-116 colon": {"test_system": "HCT-116 colon"}, "HCT-15 colon": {"test_system": "HCT-15 colon"}, "HL-60(TB) leukemia": {"test_system": "HL-60(TB) leukemia"}, "HOP-62 NSCLC": {"test_system": "HOP-62 NSCLC"}, "HOP-92 NSCLC": {"test_system": "HOP-92 NSCLC"}, "HS 578T breast": {"test_system": "HS 578T breast"}, "HT29 colon": {"test_system": "HT29 colon"}, "IGROV1 ovarian": {"test_system": "IGROV1 ovarian"}, "K-562 leukemia": {"test_system": "K-562 leukemia"}, "KM12 colon": {"test_system": "KM12 colon"}, "M14 melanoma": {"test_system": "M14 melanoma"}, "MALME-3M melanoma": {"test_system": "MALME-3M melanoma"}, "MCF7 breast": {"test_system": "MCF7 breast"}, "MDA-MB-231 breast": {"test_system": "MDA-MB-231 breast"}, "MOLT-4 leukemia": {"test_system": "MOLT-4 leukemia"}, "NCI-H226 lung": {"test_system": "NCI-H226 lung"}, "NCI-H23 lung": {"test_system": "NCI-H23 lung"}}, "note": "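These data come from cells grown in 96-well plates and exposed to compound for 48 hours at five concentrations. GI50 marks 50% less growth. At the TGI there is no net growth.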"}
{"smiles": "O=C(Nc1ccc(F)cc1)c1cc(-c2ccc(F)cc2F)ccc1O", "values": [{"measurement": "GI50", "setting": "786-0 renal", "value": 3.31, "unit": "µM"}, {"measurement": "TGI", "setting": "786-0 renal", "value": 16.7, "unit": "µM"}, {"measurement": "GI50", "setting": "A498 renal", "value": 1.47, "unit": "µM"}, {"measurement": "TGI", "setting": "A498 renal", "value": 4.13, "unit": "µM"}, {"measurement": "GI50", "setting": "A549 NSCLC", "value": 3.25, "unit": "µM"}, {"measurement": "TGI", "setting": "A549 NSCLC", "value": "> 100", "unit": "µM"}, {"measurement": "GI50", "setting": "ACHN renal", "value": 2.77, "unit": "µM"}, {"measurement": "TGI", "setting": "ACHN renal", "value": 8.51, "unit": "µM"}, {"measurement": "GI50", "setting": "BT-549 breast", "value": 2.78, "unit": "µM"}, {"measurement": "TGI", "setting": "BT-549 breast", "value": 18.6, "unit": "µM"}, {"measurement": "GI50", "setting": "CAKI-1 renal", "value": 1.95, "unit": "µM"}, {"measurement": "TGI", "setting": "CAKI-1 renal", "value": 6, "unit": "µM"}, {"measurement": "GI50", "setting": "CCRF-CEM leukemia", "value": 3.29, "unit": "µM"}, {"measurement": "TGI", "setting": "CCRF-CEM leukemia", "value": "> 100", "unit": "µM"}, {"measurement": "GI50", "setting": "COLO 205 colon", "value": 17.1, "unit": "µM"}, {"measurement": "TGI", "setting": "COLO 205 colon", "value": 50.1, "unit": "µM"}, {"measurement": "GI50", "setting": "DU-145 prostate", "value": 3.33, "unit": "µM"}, {"measurement": "TGI", "setting": "DU-145 prostate", "value": "> 100", "unit": "µM"}, {"measurement": "GI50", "setting": "EKVX NSCLC", "value": 2.61, "unit": "µM"}, {"measurement": "TGI", "setting": "EKVX NSCLC", "value": 9.17, "unit": "µM"}, {"measurement": "GI50", "setting": "HCC-2998 colon", "value": 3.12, "unit": "µM"}, {"measurement": "TGI", "setting": "HCC-2998 colon", "value": 42.8, "unit": "µM"}, {"measurement": "GI50", "setting": "HCT-116 colon", "value": 2.81, "unit": "µM"}, {"measurement": "TGI", "setting": "HCT-116 colon", "value": 12.6, "unit": "µM"}, {"measurement": "GI50", "setting": "HCT-15 colon", "value": 2.89, "unit": "µM"}, {"measurement": "TGI", "setting": "HCT-15 colon", "value": 13, "unit": "µM"}, {"measurement": "GI50", "setting": "HL-60(TB) leukemia", "value": 1.93, "unit": "µM"}, {"measurement": "TGI", "setting": "HL-60(TB) leukemia", "value": 5.04, "unit": "µM"}, {"measurement": "GI50", "setting": "HOP-62 NSCLC", "value": 3.13, "unit": "µM"}, {"measurement": "TGI", "setting": "HOP-62 NSCLC", "value": 17.1, "unit": "µM"}, {"measurement": "GI50", "setting": "HOP-92 NSCLC", "value": 1.47, "unit": "µM"}, {"measurement": "TGI", "setting": "HOP-92 NSCLC", "value": 5.24, "unit": "µM"}, {"measurement": "GI50", "setting": "HS 578T breast", "value": 2.79, "unit": "µM"}, {"measurement": "TGI", "setting": "HS 578T breast", "value": 9.62, "unit": "µM"}, {"measurement": "GI50", "setting": "HT29 colon", "value": 12.7, "unit": "µM"}, {"measurement": "TGI", "setting": "HT29 colon", "value": "> 100", "unit": "µM"}, {"measurement": "GI50", "setting": "IGROV1 ovarian", "value": 3.45, "unit": "µM"}, {"measurement": "TGI", "setting": "IGROV1 ovarian", "value": "> 100", "unit": "µM"}, {"measurement": "GI50", "setting": "K-562 leukemia", "value": 2.81, "unit": "µM"}, {"measurement": "TGI", "setting": "K-562 leukemia", "value": "> 100", "unit": "µM"}, {"measurement": "GI50", "setting": "KM12 colon", "value": 3.03, "unit": "µM"}, {"measurement": "TGI", "setting": "KM12 colon", "value": 9.93, "unit": "µM"}, {"measurement": "GI50", "setting": "M14 melanoma", "value": 3.32, "unit": "µM"}, {"measurement": "TGI", "setting": "M14 melanoma", "value": "> 100", "unit": "µM"}, {"measurement": "GI50", "setting": "MALME-3M melanoma", "value": 1.92, "unit": "µM"}, {"measurement": "TGI", "setting": "MALME-3M melanoma", "value": 5.64, "unit": "µM"}, {"measurement": "GI50", "setting": "MCF7 breast", "value": 2.31, "unit": "µM"}, {"measurement": "TGI", "setting": "MCF7 breast", "value": 10.1, "unit": "µM"}, {"measurement": "GI50", "setting": "MDA-MB-231 breast", "value": 2.38, "unit": "µM"}, {"measurement": "TGI", "setting": "MDA-MB-231 breast", "value": 6.47, "unit": "µM"}, {"measurement": "GI50", "setting": "MOLT-4 leukemia", "value": 2.57, "unit": "µM"}, {"measurement": "TGI", "setting": "MOLT-4 leukemia", "value": 7.9, "unit": "µM"}, {"measurement": "GI50", "setting": "NCI-H226 lung", "value": 2.88, "unit": "µM"}, {"measurement": "TGI", "setting": "NCI-H226 lung", "value": 9.82, "unit": "µM"}, {"measurement": "GI50", "setting": "NCI-H23 lung", "value": 2.47, "unit": "µM"}]}
